Test results taken from patent US20240270725A1, “MAGL INHIBITORS” (Hoffmann-La Roche Inc., priority 2021, published 2024).
One block for each compound: values may come before it.

Experiments:
MAGL [1] = biological target: T1, MAGL (Homo sapiens, UniProt Q99685); assay: 2-AG assay, MAGL inhibitory activity (human); assay type: biochemical
T1 sequence (Q99685 1-303): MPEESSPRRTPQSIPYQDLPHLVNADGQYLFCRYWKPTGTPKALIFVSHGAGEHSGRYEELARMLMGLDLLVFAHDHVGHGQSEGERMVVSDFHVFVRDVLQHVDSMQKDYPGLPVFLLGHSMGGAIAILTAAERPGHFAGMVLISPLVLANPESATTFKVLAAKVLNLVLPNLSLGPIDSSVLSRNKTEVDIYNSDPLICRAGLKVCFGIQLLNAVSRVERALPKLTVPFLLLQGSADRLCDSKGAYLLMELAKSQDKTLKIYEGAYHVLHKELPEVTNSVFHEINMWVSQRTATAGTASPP
Procedure: (§1) Compounds were profiled for MAGL inhibitory activity by determining the enzymatic activity by following the hydrolysis of the natural substrate, 2-arachidonoylglycerol, resulting in arachidonic acid, which can be followed by mass spectrometry. This assay is hereinafter abbreviated “2-AG assay”.
(§2) A C18 SPE cartridge (G9205A) was used in an acetonitrile/water liquid setup. […] The activity of the compounds was calculated based on the ratio of intensities [arachidonic acid/d8-arachidonic acid].

MAGL [2] = biological target: T2, MAGL (Mus musculus, UniProt O35678); assay: 2-AG assay, MAGL inhibitory activity (mouse); assay type: biochemical
T2 sequence (O35678 1-303): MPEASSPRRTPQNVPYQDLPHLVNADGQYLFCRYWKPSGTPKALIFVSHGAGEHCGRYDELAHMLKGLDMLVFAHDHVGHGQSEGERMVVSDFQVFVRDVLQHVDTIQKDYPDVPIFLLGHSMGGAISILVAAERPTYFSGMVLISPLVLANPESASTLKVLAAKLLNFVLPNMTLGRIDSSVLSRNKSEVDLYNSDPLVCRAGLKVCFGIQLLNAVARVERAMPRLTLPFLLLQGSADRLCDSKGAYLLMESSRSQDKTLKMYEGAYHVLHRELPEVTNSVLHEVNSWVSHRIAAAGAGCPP
Procedure: as §1, §2

MAGL [3] = biological target: T2, MAGL; assay: Drug occupancy study by PET with [^18F]-II; assay type: in vivo
Procedure: To investigate the utility of [^18F]-II, a drug occupancy study was conducted after validating the in vitro/vivo specificity. The potent and selective covalent MAGL inhibitor PF-06795071, originally developed for anti-inflammatory treatments, was applied for this study (McAllister LA, Butler C R, Mente S, et al. Discovery of Trifluoromethyl Glycol Carbamates as Potent and Selective Covalent Monoacylglycerol Lipase (MAGL) Inhibitors for Treatment of Neuroinflammation. J Med Chem. 2018;61:3008-3026). PF-06795071 was prepared as a transparent solution in a vehicle of DMSO/Cremophor/saline (v/v/v=5/5/90). The animal was treated with escalating doses of PF-06795071 (0.002, 0.01, 0.05, 0.2 and 2 mg/kg) 1 hour prior to the administration of [^18F]-II (4.15-11.13 MBq, 6.84-13.19 nmol/kg). The in vivo PET scans and data reconstruction were carried out as described in Example 9. The SUVs from the whole brain TACs was averaged from 0-90 min to obtain SUV0-90 min in receptor occupancy study as previously detailed by Krämer et al. (Krämer SD, Betzel T, Mu L, et al. Evaluation of ^11C-Me-NB1 as a Potential PET Radioligand for Measuring GluN2B-Containing NMDA Receptors, Drug Occupancy, and Receptor Cross Talk. J Nucl Med. 2018;59:698-703). The non-linear curve was fitted with GraphPad Prism Software (version 8.3.4, GraphPad Software Inc) for D50 value.

MAGL [4] = biological target: T3, MAGL (Rattus norvegicus, UniProt Q8R431); assay: In vitro autoradiography blockade on rat brain section; assay type: binding; details: 10 μM blocker
T3 construct: from tissue; host or cells: Wistar rat brain sections
T3 sequence (Q8R431 1-303): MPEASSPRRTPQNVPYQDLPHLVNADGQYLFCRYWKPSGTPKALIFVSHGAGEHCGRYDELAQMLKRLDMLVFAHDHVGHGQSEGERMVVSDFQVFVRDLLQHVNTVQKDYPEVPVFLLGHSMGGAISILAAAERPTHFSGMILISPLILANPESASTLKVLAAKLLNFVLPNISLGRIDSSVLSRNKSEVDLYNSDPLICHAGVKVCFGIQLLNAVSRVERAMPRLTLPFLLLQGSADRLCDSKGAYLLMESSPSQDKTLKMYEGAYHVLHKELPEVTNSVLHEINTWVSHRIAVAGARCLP

MAGL [5] = system: MAGL
Procedure: Frozen brain tissues of Wistar rats or mouse were cut in the thickness of 10 μm on a cryostat (Cryo-Star HM 560 MV; Microm, Thermo Scientific, Wilmington, DE), and stored at −20° C. before use. Before the experiments, the slices were thawed on ice for 10 min and subsequently immersed into aqueous 50 mM Tris buffer (pH 7.4, 30 mM HEPES, 1.2 mM MgCl2, 110 mM NaCl, 5 mM KCl, 2.5 mM CaCl2) containing 3% fatty acid free bovine serum albumin (BSA) at 0° C. for 10 min for precondition. Upon drying, incubation was carried out in a humidified chamber with the radiotracer at room temperature for 30 min. […] The slices were decanted after incubation, and washing procedure was conducted. The slices were left to dry before attaching to phosphor imager plates (Fuji, Dielsdorf, Switzerland), and exposure was lasted for 60 min. The films were later scanned by BAS5000 reader (Fuji), and data analysis was performed using AIDA 4.50.010 software (Raytest Isotopenmessgerate GmbH, Straubenhardt, Germany).

MAGL [6] = assay: In vivo PET scans in MAGL KO and WT mice; details: mouse brain, at 1 min p.i., intravenous
Procedure: The animal was anesthetized using isoflurane and placed in the PET/CT scanner (Super Argus, Sedecal, Madrid, Spain). The radiotracer was injected intravenously, and data was acquired at 1 min post-injection. The dynamic PET scan lasted 60 min for [^11C]-I, while it's prolonged to 90 min for [^18F]-II and [^18F]-III. […] The regions of interest (ROI) were defined on an MRI T2 (W.Schiffer) template provided by PMOD v4.002 (PMOD Technologies, Zurich, Switzerland) to generate the corresponding time acitivity curves (TACs). The radioactivity accumulations in the whole brain and different regions were expressed as standardized uptake values (SUVs), which is the decay-corrected regional radioactivity normalized to the injected radioactivity and body weight.

MAGL [7] = details: reported in Hattori et al., J Med Chem 2019; cited from earlier work

IC50 (MAGL [1]): 6.5 nM
IC50 (MAGL [2]): 4.3 nM
SMILES: COc1cccc(-c2ccc(N3C[C@H](N4CCN(C(=O)c5ccco5)CC4)CC3=O)cc2)c1 [I, (R)-4-(4-(Furan-2-carbonyl)piperazin-1-yl)-1-(3′-methoxy-[1,1′-biphenyl]-4-yl)pyrrolidin-2-one]

IC50 (MAGL [1]): 11.5 nM
IC50 (MAGL [2]): 11.3 nM
SMILES: O=C(c1ccco1)N1CCN([C@@H]2CC(=O)N(c3ccc(-c4cccc(F)c4)cc3)C2)CC1 [III, (R)-1-(3′-Fluoro-[1,1′-biphenyl]-4-yl)-4-(4-(furan-2-carbonyl)piperazin-1-yl)pyrrolidin-2-one]

effect on [^18F]-II accumulation in the mouse brain (MAGL [3]; 0.002 to 2 mg/kg): dose-dependent reduction
required dose to occupy 50% MAGL in the mouse brain (D50) (MAGL [3]; given 1 hour prior to [^18F]-II, SUV0-90 min whole brain): 0.034 mg/kg
SMILES: O=C(O[C@H](CO)C(F)(F)F)N1C[C@@H]2C(c3ccn(-c4ccc(F)cc4)n3)[C@@H]2C1 (stereo partly shown) [PF-06795071]

SMILES: O=C(OC(C(F)(F)F)C(F)(F)F)N1CCC(CNS(=O)(=O)c2ccc(Cl)cc2)CC1 [SAR127303]
blockade of specific binding of [^11C]-I (MAGL [4]): substantial reduction and homogenous distribution of the radioactivity

SMILES: [11CH3]Oc1cccc(-c2ccc(N3C[C@H](N4CCN(C(=O)c5ccco5)CC4)CC3=O)cc2)c1 [[^11C]-I, (R)-4-(4-(furan-2-carbonyl)piperazin-1-yl)-1-(3′-(methoxy-^11C)-[1,1′-biphenyl]-4-yl)pyrrolidin-2-one]
specificity and selectivity in vitro (MAGL [5]; autoradiography, blockade and MAGL KO brain section): high specificity and selectivity
distribution of radioactive signal accumulation on brain slices (MAGL [5]; ~1 nM radiotracer, mouse or rat brain slice): heterogeneous distribution of radioactive signal accumulation, which matched to the MAGL expression pattern in rodents
SUVmax (brain uptake) (MAGL [6]): ~1.32

SUVmax (brain uptake) (MAGL [6]): ~1.63
SMILES: O=C(c1ccco1)N1CCN([C@@H]2CC(=O)N(c3ccc(-c4cccc([18F])c4)cc3)C2)CC1 [[^18F]-III]

SUVmax (brain uptake) (MAGL [6]): ~1.56
SMILES: O=C(c1ccco1)N1CCN([C@@H]2CC(=O)N(c3ccc(-c4ccc([18F])cc4)cc3)C2)CC1 [[^18F]-II]

SMILES: Cc1ccnc([18F])c1-c1cccc(N2C[C@H](N3CCN(C(=O)c4nccs4)CC3)CC2=O)c1 [[^18F]T-401, (4R)-1-{3-[2-(^18F)Fluoro-4-methylpyridin-3-yl]phenyl}-4-[4-(1,3-thiazol-2-ylcarbonyl)piperazin-1-yl]pyrrolidin-2-one]
SUVmax (brain uptake), literature (MAGL [7]): ~0.7
